Measured values taken from PubChem BioAssay AID248 (DTP/NCI, 2004).
“And” between values parts separate entries of the source, which are not always exact repeats. Equal values may be shown once. Inconclusive results and toxic doses are left out. Cut-off read from the data, not from the text of the source: active = T/C of 150% or more; inactive = T/C below 125%. Numbered stars: 1 amine (or outer) side, 2 acyl side, 3 side chain; on linkers, the order of the positions; unused ones are H or OH. Bridge positions count the residues as written; N and C are the ends. Square brackets hold non-standard residues; d marks the D form. Peptide text beside a SMILES is read from it. I, II: the chains in the order shown. Actinocin(9to1) = Cc1c2oc3c(C)ccc(C(=O)[*:1])c3nc-2c(C(=O)[*:2])c(N)c1=O; NMeV = CN[CH](C(=O)O)C(C)C; Sar = CNCC(=O)O

Test system: L1210 leukemia ip in BDF1 mice, survival T/C
Assay: NCI In Vivo Anticancer Drug Screen. Data for tumor model L1210 Leukemia (intraperitoneal) in B6D2F1 (BDF1) mice
Conditions: endpoint: mean survival time, higher = longer survival
Outline: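 Each compound was tested against a transplantable tumor grown in mice. The endpoint was survival, with treated animals benchmarked against vehicle controls as a simple ratio.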

[1] = dose: 100.0 mg/kg/injection, schedule: Q01DX001 (ip), vehicle: saline
[2] = dose: 200.0 mg/kg/injection, schedule: Q01DX001 (ip), vehicle: saline
[3] = dose: 400.0 mg/kg/injection, schedule: Q01DX001 (ip), vehicle: saline
[4] = dose: 100.0 mg/kg/injection, schedule: Q04DX003 (ip), vehicle: saline with Tween-80
[5] = dose: 200.0 mg/kg/injection, schedule: Q04DX003 (ip), vehicle: saline with Tween-80
[6] = dose: 400.0 mg/kg/injection, schedule: Q04DX003 (ip), vehicle: saline with Tween-80
[7] = dose: 100.0 mg/kg/injection, schedule: Q04DX003 (ip), vehicle: saline
[8] = dose: 200.0 mg/kg/injection, schedule: Q04DX003 (ip), vehicle: saline
[9] = dose: 100.0 mg/kg/injection, schedule: Q01DX009 (ip), vehicle: saline with Tween-80

Measured: T/C

Cc1c2oc3c(C)ccc(C(=O)NC4C(=O)NC(C(C)C)C(=O)N(C)CC(=O)N(C)CC(=O)N(C)C(C(C)C)C(=O)OC4C)c3nc-2c(C(=O)NC2C(=O)NC(C(C)C)C(=O)N(C)CC(=O)N(C)CC(=O)N(C)C(C(C)C)C(=O)OC2C)c(N)c1=O (stereo not given) (I: TV[Sar][Sar][NMeV] / II: TV[Sar][Sar][NMeV]; ester I:1-I:C, II:1-II:C; linker I:N-II:N via Actinocin(9to1); configuration not given here)
inactive: dose: 0.05 mg/kg/injection, schedule: Q01DX009 (ip), vehicle: other 94 % of control | dose: 0.1 mg/kg/injection, schedule: Q01DX009 (ip), vehicle: other 108 % of control | dose: 0.2 mg/kg/injection, schedule: Q01DX009 (ip), vehicle: other 106 % of control | dose: 0.4 mg/kg/injection, schedule: Q01DX009 (ip), vehicle: other 115 % of control | dose: 0.5 mg/kg/injection, schedule: Q01DX001 (ip), vehicle: saline + alcohol 105 % of control | dose: 0.8 mg/kg/injection, schedule: Q01DX009 (ip), vehicle: other 120 % of control | dose: 1.0 mg/kg/injection, schedule: Q01DX001 (ip), vehicle: saline + alcohol 112 % of control | dose: 1.6 mg/kg/injection, schedule: Q01DX009 (ip), vehicle: other 92 % of control | dose: 2.0 mg/kg/injection, schedule: Q01DX001 (ip), vehicle: saline + alcohol 116 % of control | dose: 4.0 mg/kg/injection, schedule: Q01DX001 (ip), vehicle: saline + alcohol 113 % of control | dose: 62.5 micrograms/kg/injection, schedule: Q01DX009 (ip), vehicle: saline + alcohol 105 % of control | dose: 125.0 micrograms/kg/injection, schedule: Q01DX009 (ip), vehicle: saline + alcohol 112 % of control | dose: 188.0 micrograms/kg/injection, schedule: Q04DX003 (ip), vehicle: saline + alcohol 107 % of control | dose: 250.0 micrograms/kg/injection, schedule: Q01DX009 (ip), vehicle: saline + alcohol 119 % of control | dose: 375.0 micrograms/kg/injection, schedule: Q04DX003 (ip), vehicle: saline + alcohol 106 % of control | dose: 750.0 micrograms/kg/injection, schedule: Q04DX003 (ip), vehicle: saline + alcohol 112 % of control | dose: 1500.0 micrograms/kg/injection, schedule: Q04DX003 (ip), vehicle: saline + alcohol 119 % of control

Cc1ccc(N=C(N)N=C(N)N)cc1C
inactive: dose: 75.0 mg/kg/injection, schedule: Q01DX001 (ip), vehicle: carboxymethylcellulose (CMC) 97 % of control | dose: 150.0 mg/kg/injection, schedule: Q01DX001 (ip), vehicle: carboxymethylcellulose (CMC) 97 % of control | dose: 300.0 mg/kg/injection, schedule: Q01DX001 (ip), vehicle: carboxymethylcellulose (CMC) 91 % of control

Cc1ccc(NC2=C(Cl)C(=O)c3ccccc3C2=O)cc1
inactive: dose: 50.0 mg/kg/injection, schedule: Q01DX001 (ip), vehicle: carboxymethylcellulose (CMC) 101 % of control | dose: 100.0 mg/kg/injection, schedule: Q01DX001 (ip), vehicle: carboxymethylcellulose (CMC) 95 % of control | dose: 200.0 mg/kg/injection, schedule: Q01DX001 (ip), vehicle: carboxymethylcellulose (CMC) 93 % of control | dose: 400.0 mg/kg/injection, schedule: Q01DX001 (ip), vehicle: carboxymethylcellulose (CMC) 89 % of control

CC(C)(C)c1ccc(SC(=O)NCCCl)cc1
inactive: dose: 20.0 mg/kg/injection, schedule: Q04DX003 (ip), vehicle: Klucel (hydroxypropylcellulose) (HPC) 97 % of control | dose: 40.0 mg/kg/injection, schedule: Q04DX003 (ip), vehicle: Klucel (hydroxypropylcellulose) (HPC) 98 % of control | dose: 80.0 mg/kg/injection, schedule: Q04DX003 (ip), vehicle: Klucel (hydroxypropylcellulose) (HPC) 90 % of control | dose: 100.0 mg/kg/injection, schedule: Q04DX003 (ip), vehicle: Klucel (hydroxypropylcellulose) (HPC) 106 % of control | dose: 200.0 mg/kg/injection, schedule: Q04DX003 (ip), vehicle: Klucel (hydroxypropylcellulose) (HPC) 91 % of control

COC(OC)c1cccc([N+](=O)[O-])c1
inactive: dose: 50.0 mg/kg/injection, schedule: Q01DX001 (ip), vehicle: saline 111 % of control | [1] 107 % of control | [2] 102 % of control | [3] 100 % of control

NC(=O)N/N=C1\CCCCC12CCCCC2
inactive: dose: 100.0 mg/kg/injection, schedule: Q04DX003 (ip), vehicle: acetone 95 % of control | dose: 200.0 mg/kg/injection, schedule: Q04DX003 (ip), vehicle: acetone 103 % of control | dose: 400.0 mg/kg/injection, schedule: Q04DX003 (ip), vehicle: acetone 97 % of control

CC(=O)OCC(OC(C)=O)C(OC(C)=O)C(OC(C)=O)C(COC(C)=O)OC(C)=O (stereo not given)
inactive: [4] 97 % of control | [5] 93 % of control | [6] 98 % of control

C[N+]1(CC2CO2)CCCCCC1 (stereo not given)
inactive: dose: 75.0 mg/kg/injection, schedule: Q01DX001 (ip), vehicle: saline 95 % of control

CC(=O)N\C(N)=N/N=C\C(C)=N/N=C(\N)NC(C)=O
inactive: dose: 15.0 mg/kg/injection, schedule: Q01DX Z (ip), vehicle: carboxymethylcellulose (CMC) 94 % of control | dose: 30.0 mg/kg/injection, schedule: Q01DX Z (ip), vehicle: carboxymethylcellulose (CMC) 94 % of control | dose: 60.0 mg/kg/injection, schedule: Q01DX Z (ip), vehicle: carboxymethylcellulose (CMC) 97 % of control and 100 % of control | dose: 120.0 mg/kg/injection, schedule: Q01DX Z (ip), vehicle: carboxymethylcellulose (CMC) 94 % of control and 102 % of control | dose: 240.0 mg/kg/injection, schedule: Q01DX Z (ip), vehicle: carboxymethylcellulose (CMC) 109 % of control

NCC(Cc1ccc(O)cc1)P(=O)(O)O (stereo not given)
inactive: [7] 100 % of control | [8] 95 % of control | dose: 400.0 mg/kg/injection, schedule: Q04DX003 (ip), vehicle: saline 92 % of control

O=C1C=CC(=O)C2C3CC(C4OC34)C12 (stereo not given)
inactive: dose: 25.0 mg/kg/injection, schedule: Q01DX009 (ip), vehicle: saline with Tween-80 102 % of control | dose: 50.0 mg/kg/injection, schedule: Q01DX009 (ip), vehicle: saline with Tween-80 94 % of control | [9] 100 % of control and 89 % of control

O=C1CCC(CCl)O1 (stereo not given)
inactive: dose: 75.0 mg/kg/injection, schedule: Q01DX009 (ip), vehicle: other 100 % of control | dose: 100.0 mg/kg/injection, schedule: Q04DX002 (ip), vehicle: other 93 % of control | dose: 150.0 mg/kg/injection, schedule: Q01DX009 (ip), vehicle: other 104 % of control | dose: 200.0 mg/kg/injection, schedule: Q04DX002 (ip), vehicle: other 93 % of control | dose: 300.0 mg/kg/injection, schedule: Q01DX009 (ip), vehicle: other 96 % of control | dose: 400.0 mg/kg/injection, schedule: Q04DX002 (ip), vehicle: other 110 % of control

COc1ccc2c(c1)C13CCN(C)C(C2)C1CCC1(C3)OCCO1 (stereo not given)
inactive: dose: 12.5 mg/kg/injection, schedule: Q01DX009 (ip), vehicle: saline 103 % of control | dose: 25.0 mg/kg/injection, schedule: Q01DX009 (ip), vehicle: saline 94 % of control | dose: 50.0 mg/kg/injection, schedule: Q01DX009 (ip), vehicle: saline 97 % of control | [1] 109 % of control | dose: 100.0 mg/kg/injection, schedule: Q01DX009 (ip), vehicle: Klucel (hydroxypropylcellulose) (HPC) 106 % of control | [7] 105 % of control | [2] 101 % of control | [8] 86 % of control | [3] 95 % of control

CCOc1nc(S(=O)(=O)CC)ncc1C
inactive: [9] 109 % of control | [4] 105 % of control | dose: 200.0 mg/kg/injection, schedule: Q01DX009 (ip), vehicle: saline with Tween-80 104 % of control | [5] 100 % of control | dose: 400.0 mg/kg/injection, schedule: Q01DX009 (ip), vehicle: saline with Tween-80 87 % of control | [6] 103 % of control

O=C1c2cccc(O)c2C(=O)c2c(O)cc(CO)cc21
inactive: [1] 98 % of control | [2] 95 % of control | [3] 95 % of control
